Measurements reported in patent US8101621B2, “Aminopyridine derivatives having aurora a selective inhibitory action” (MSD K.K., priority 2006, dated 2012).
pIC50: −log10 of the molar value. “And” between values parts separate entries of the source, which are not always exact repeats. Identical values can stand only once. Counter-ions that a name gives are not always drawn.

Experiments:
Aurora B = target: T1, Aurora B (Homo sapiens, UniProt Q96GD4); assay: Aurora B inhibitory action (Kemptide substrate, [γ-33P]ATP, 100 μM ATP); assay type: biochemical; settings: 30° C., 20 minutes
T1 construct: histidine tag (N); made in house; host or cells: Escherichia coli BL21-CodonPlus (DE3)-RIL
T1 sequence (Q96GD4 whole entry): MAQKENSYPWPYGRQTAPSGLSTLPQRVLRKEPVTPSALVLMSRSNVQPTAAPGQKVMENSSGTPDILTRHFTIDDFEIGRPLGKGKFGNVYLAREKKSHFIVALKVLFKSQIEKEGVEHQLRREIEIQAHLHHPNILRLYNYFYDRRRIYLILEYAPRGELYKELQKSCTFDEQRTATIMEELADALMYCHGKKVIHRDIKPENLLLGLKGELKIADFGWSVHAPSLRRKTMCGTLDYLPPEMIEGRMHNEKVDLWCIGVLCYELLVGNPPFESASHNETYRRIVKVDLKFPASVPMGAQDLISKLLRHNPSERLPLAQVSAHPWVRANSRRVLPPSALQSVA
Excerpt: (§1) cDNA of Aurora B having histidine tag fused at the amino terminal was integrated into an expression vector, which was then highly expressed in Escherichia coli BL21-CodonPlus (DE3)-RIL cells. The Escherichia coli cells were recovered and solubilized, and then the histidine-tagged Aurora A protein was adsorbed onto a nickel chelate column and eluted from the column with imidazole. The active fraction was desalted with a desalting column to give a pure enzyme.
For measurement of the activity of Aurora B, the substrate used was Kemptide (Leu-Arg-Arg-Ala-Ser-Leu-Gly) (SEQ.ID.NO.: 1), a synthetic peptide purchased from Sigma-Aldrich, Inc. [Certificate of analysis (Upstate, Inc.)].
Reaction was conducted by a partial modification of the method of activity measurement for Aurora A. The amount of the reaction liquid was 21.1 μL, and the composition of the reaction buffer (R2 buffer) was 50 mM Tris-hydrochloride buffer (pH 7.4)/15 mM magnesium acetate/0.2 mM ethylenediamine-N,N,N′,N′-tetraacetate (EDTA). To this, purified Aurora B, 100 μM of a substrate peptide, 100 μM of unlabeled adenosine triphosphate (ATP) and 1 μCi of [γ-^33P] labeled ATP (2,500 Ci/mmole or more) were added, and the mixture was reacted at 30° C. for 20 minutes. Then, 10 μL of 350 mM phosphate buffer was added to the reaction system to stop the reaction. The substrate peptide was adsorbed on a P81 paper filter 96-well plate and then washed with 130 mM phosphate buffer for several times. The radiation activity of the peptide was measured with a liquid scintillation counter. The [γ-^33P] labeled ATP was purchased from Amersham Biosciences Co., Ltd.
(§2) The compound to be tested was added to the reaction system such that a dilution series of the compound in dimethylsulfoxide was first prepared, and 1.1 μL of this solution was added. A control was provided by adding 1.1 μL of DMSO to the reaction system.

Aurora A = target: T2, Aurora A (Homo sapiens, UniProt O14965); assay: Aurora A inhibitory action (Kemptide substrate, [γ-33P]ATP, 20 μM ATP); assay type: biochemical; settings: 30° C., 20 minutes
T2 construct: histidine tag (N); made in house; host or cells: Escherichia coli BL21-CodonPlus (DE3)-RIL
T2 sequence (O14965 1-403): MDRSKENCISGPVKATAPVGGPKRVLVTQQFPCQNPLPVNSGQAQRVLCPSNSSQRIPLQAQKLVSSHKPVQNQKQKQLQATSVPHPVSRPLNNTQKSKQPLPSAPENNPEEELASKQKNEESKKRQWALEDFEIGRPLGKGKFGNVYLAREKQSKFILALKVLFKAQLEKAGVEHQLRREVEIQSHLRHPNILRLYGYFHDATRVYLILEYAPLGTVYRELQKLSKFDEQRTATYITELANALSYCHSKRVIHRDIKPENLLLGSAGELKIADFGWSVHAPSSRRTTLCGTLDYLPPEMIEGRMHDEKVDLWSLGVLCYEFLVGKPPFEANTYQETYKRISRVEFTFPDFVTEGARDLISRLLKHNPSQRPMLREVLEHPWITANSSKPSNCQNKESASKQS
Excerpt: as §1, with “Aurora A” for “Aurora B”
For measurement of the activity of Aurora A, the substrate used was Kemptide (Leu-Arg-Arg-Ala-Ser-Leu-Gly) (SEQ.ID.NO.: 1), a synthetic peptide purchased from Sigma-Aldrich, Inc. [Certificate of analysis (Upstate, Inc.)].
Reaction was conducted by a partial modification of a method by Upstate, Inc. [Kinase Profiler™ Assay Protocols]. The amount of the reaction liquid was 21.1 μL, and the composition of the reaction buffer (R2 buffer) was 50 mM Tris-hydrochloride buffer (pH 7.4)/15 mM magnesium acetate/0.2 mM ethylenediamine-N,N,N′,N′-tetraacetate (EDTA). To this, purified Aurora A, 100 μM of a substrate peptide, 20 μM of unlabeled adenosine triphosphate (ATP) and 0.5 μCi of [γ-^33P] labeled ATP (2,500 Ci/mmole or more) were added, and the mixture was reacted at 30° C. for 20 minutes. Then, 10 μL of 350 mM phosphate buffer was added to the reaction system to stop the reaction. The substrate peptide was adsorbed on a P81 paper filter 96-well plate and then washed with 130 mM phosphate buffer for several times. The radiation activity of the peptide was measured with a liquid scintillation counter. The [γ-^33P] labeled ATP was purchased from Amersham Biosciences Co., Ltd.
as §2

[1] = test system: Human cervical cancer cells (HeLa S3); assay: Effect by combined use with paclitaxel in cells, WST-8 method; assay type: cell-based; settings: three days, DMSO = 0%; for inhibition at 1 µM: HeLa S3, compound 1.0 μM alone
Protocol: Fetal calf serum (FCS) was purchased from Moregate Biotech, DMEM medium from Invitrogen Corp., paclitaxel (tradename: Taxol) from Sigma-Aldrich, Inc., and WST-8 from Kishida Chemical Co., Ltd.
(§3) Human cervical cancer cells (HeLa S3) were obtained from the American Type Culture Collection (ATCC).
Cells were suspended in a DMEM medium containing 10% FCS, and the cell suspension was dispensed to two 96-well plastic plates at a rate of 750 cells/100 microliters per well. The plates were incubated overnight in 5% CO2-95% air at 37° C. A drug was subjected to graded dilution in dimethylsulfoxide and further diluted with […] a DMEM medium containing 10% FCS and also containing 2 nM paclitaxel. Then, the dilutions were each dispensed to one of the plates on which cells had been disseminated, at a rate of 100 microliters per well. The final concentration of paclitaxel at this stage was 1 nM. Also, the concentrations in the case of sole administration of the compound according to the invention were 0.03, 0.1, 0.3, 1 and 3 μM. The plates were incubated for further three days in 5% CO2-95% air at 37° C. Cell growth after incubation was measured by the WST-8 method (H. Tominaga, et al., Anal. Commun., 36, 47-50 (1999)). Here, the WST-8 method refers to a method in which 20 microliters of a WST-8 reagent solution is added to each well, incubation is conducted at 37° C. for 45 minutes, the plate is stirred, and the amount of formazan produced is measured by a colorimetric method to determine the inhibitory rate of the drug. The growth inhibitory effects of paclitaxel and of the compound according to the invention were determined, with the value obtained in sole treatment of DMSO being defined as 0%.

[2] = test system: Human cervical cancer cells (HeLa S3); assay: Cell growth inhibitory effect, WST-8 method; assay type: cell-based; settings: 72 h, HeLa S3, three days incubation
Protocol: Fetal calf serum (FCS) was purchased from Moregate Biotech, and DMEM medium was purchased from Invitrogen Corp. WST-8 was purchased from Kishida Chemical Co., Ltd.
as §3
Cells were suspended in a DMEM medium containing 10% FCS, and the cell suspension was dispensed to a 96-well plastic plate at a rate of 750 cells/100 microliters per well. The plate was incubated overnight in 5% CO2-95% air at 37° C. A drug was subjected to graded dilution in dimethylsulfoxide and further diluted with a DMEM medium containing 10% FCS. Then, the dilution was dispensed to the plate on which cells had been disseminated, at a rate of 100 microliters per well. The plate was incubated for further three days in 5% CO2-95% air at 37° C. Cell growth after incubation was measured by the WST-8 method (H. Tominaga, et al., Anal. Commun., 36, 47-50 (1999)). Here, the WST-8 method refers to a method in which 20 microliters of a WST-8 reagent solution is added to each well, incubation is conducted at 37° C. for 45 minutes, the plate is stirred, and the amount of formazan produced is measured by a calorimetric method to determine the inhibitory rate of the drug. The concentration for 50% growth inhibition (EC50, μM) of the compound was determined.

[3] = HeLa S3, compound 1.0 μM + paclitaxel 1 nM
[4] = Homo sapiens, HeLa S3, 72 h, read-out: Cell growth inhibitory effect by sole administration of the compound of Example (%)

| SMILES | pIC50 (Aurora B) | pIC50 (Aurora A) | pIC50 [2] | Cell growth inhibitory effect by combined administration of paclitaxel and the compound of Example (%) [1, 3] [%] | inhibition at 1 µM [1, 4] [%] | Cell growth inhibitory effect by combined administration of paclitaxel and the compound of Example (%) ([1]; HeLa S3, compound 0.1 μM + paclitaxel 1 nM) | inhibition at 0.1 µM ([1]; Homo sapiens, HeLa S3, 72 h, HeLa S3, compound 0.1 μM alone, read-out: Cell growth inhibitory effect by sole administration of the compound of Example (%)) [%] | Cell growth inhibitory effect by sole administration of paclitaxel (1 nM) (%) ([1]; HeLa S3, paclitaxel 1 nM alone) | inhibition at 0.001 µM ([1]; Homo sapiens, HeLa S3, 72 h, HeLa S3, paclitaxel 1 nM alone, read-out: Cell growth inhibitory effect by sole administration of paclitaxel (1 nM) (%)) [%] |
| --- | --- | --- | --- | --- | --- | --- | --- | --- | --- |
| Cc1cc(Nc2ccnc(CN3C[C@@H]4C[C@H]3CN4C(=O)c3cccc(Cl)c3F)n2)n[nH]1 [Example 9, 2-(((1S,4S)-5-(3-chloro-2-fluorobenzoyl)-2,5-diazabicyclo[2.2.1]hept-2-yl)methyl)-N-(5-methyl-1H-pyrazol-3-yl)pyrimidine-4-amine] | 6.16 | 8.01 |  | 79.5 | 12.4 |  |  |  |  |
| CN(C)C(=O)c1cc(CN2C[C@@H]3C[C@H]2CN3C(=O)c2cccc(Cl)c2F)nc(Nc2nccs2)c1 [Example 21, 2-(((1S,4S)-5-(3-chloro-2-fluorobenzoyl)-2,5-diazabicyclo[2.2.1]hept-2-yl)methyl)-N,N-dimethyl-6-(1,3-thiazol-2-ylamino)isonicotinamide] | 6.59 | 8.89 | 6.17 |  |  | 81.3 | 14.9 |  |  |
| O=C(c1cccc(C(F)(F)F)c1Cl)N1C[C@H]2C[C@@H]1CN2Cc1cncc(Nc2cc[nH]n2)n1 [Example 12] | 5.64 | 8.32 |  |  |  |  |  |  |  |
| Cc1cc(Nc2cc[nH]n2)nc(CN2C[C@@H]3C[C@H]2CN3C(=O)c2cccc(Cl)c2F)n1 [Example 1, 2-(((1S,4S)-5-(3-chloro-2-fluorobenzoyl)-2,5-diazabicyclo[2.2.1]hept-2-yl)methyl)-6-methyl-N-1H-pyrazol-3-ylpyrimidine-4-amine] | 6.19 | 8.52 | 5.29 | 83.0 | 14.3 |  |  |  |  |
| CC(=O)O[C@H]1C(=O)[C@@]2(C)[C@H]([C@H](OC(=O)c3ccccc3)[C@]3(O)C[C@H](OC(=O)[C@H](O)[C@@H](NC(=O)c4ccccc4)c4ccccc4)C(C)=C1C3(C)C)[C@]1(OC(C)=O)CO[C@@H]1C[C@@H]2O [paclitaxel, reference compound] |  |  |  |  |  |  |  | 47.1% and 51.4% | 47.2 |
| O=C(c1cccc(Cl)c1Cl)N1C[C@@H]2C[C@H]1CN2Cc1cncc(Nc2cc[nH]n2)n1 [Example 10, 6-(((1S,4S)-5-(2,3-dichlorobenzoyl)-2,5-diazabicyclo[2.2.1]hept-2-yl)methyl)-N-1H-pyrazol-3-ylpyrazine-2-amine trifluoroacetate] | 5.68 | 8.15 | 5.34 | 84.8 | 8.9 |  |  |  |  |
| Cc1cc(Nc2cc(C)[nH]n2)nc(CN2C[C@@H]3C[C@H]2CN3C(=O)c2cccc(Cl)c2F)n1 [Example 7] | 6.52 | 8.24 |  |  |  |  |  |  |  |
| O=C(c1cccc(C(F)(F)F)c1F)N1C[C@@H]2C[C@H]1CN2Cc1nccc(Nc2cc[nH]n2)n1 [Example 6, 2-(((1S,4S)-5-(2-fluoro-3-(trifluoromethyl)benzoyl)-2,5-diazabicyclo[2.2.1]hept-2-yl)methyl)-N-1H-pyrazol-3-ylpyrimidine-4-amine] | 5.55 | 8.21 | 5.01 | 71.7 | 1.7 |  |  |  |  |

The next lines start with results.

| pIC50 (Aurora B) | pIC50 (Aurora A) | pIC50 [2] | SMILES | Cell growth inhibitory effect by combined administration of paclitaxel and the compound of Example (%) [1, 3] [%] | inhibition at 1 µM [1, 4] [%] | Cell growth inhibitory effect by combined administration of paclitaxel and the compound of Example (%) ([1]; HeLa S3, compound 0.1 μM + paclitaxel 1 nM) | inhibition at 0.1 µM ([1]; Homo sapiens, HeLa S3, 72 h, HeLa S3, compound 0.1 μM alone, read-out: Cell growth inhibitory effect by sole administration of the compound of Example (%)) [%] | Cell growth inhibitory effect by sole administration of paclitaxel (1 nM) (%) ([1]; HeLa S3, paclitaxel 1 nM alone) | inhibition at 0.001 µM ([1]; Homo sapiens, HeLa S3, 72 h, HeLa S3, paclitaxel 1 nM alone, read-out: Cell growth inhibitory effect by sole administration of paclitaxel (1 nM) (%)) [%] |
| --- | --- | --- | --- | --- | --- | --- | --- | --- | --- |
| 6.23 | 8.85 |  | CN(C)C(=O)c1cc(CN2C[C@@H]3C[C@H]2CN3C(=O)c2cccc(C(F)(F)F)c2F)nc(Nc2nccs2)c1 [Example 22, 2-(((1S,4S)-5-(2-fluoro-3-(trifluoromethyl)benzoyl)-2,5-diazabicyclo[2.2.1]hept-2-yl)methyl)-N,N-dimethyl-6-(1,3-thiazol-2-ylamino)isonicotinamide trifluoroacetate] |  |  |  |  |  |  |
| 6.48 | 8.85 |  | CN(C)C(=O)c1cc(CN2C[C@@H]3C[C@H]2CN3C(=O)c2cccc(Cl)c2C#N)nc(Nc2nccs2)c1 [Example 23, 2-(((1S,4S)-5-(3-chloro-2-cyanobenzoyl)-2,5-diazabicyclo[2.2.1]hept-2-yl)methyl)-N,N-dimethyl-6-(1,3-thiazol-2-ylamino)isonicotinamide trifluoroacetate] |  |  |  |  |  |  |
| 6.72 | 8.96 |  | CN(C)C(=O)c1cc(CN2C[C@@H]3C[C@H]2CN3C(=O)c2cccc(C(F)(F)F)c2C#N)nc(Nc2nccs2)c1 [Example 24, 2-(((1S,4S)-5-(2-cyano-3-(trifluoromethyl)benzoyl)-2,5-diazabicyclo[2.2.1]hept-2-yl)methyl)-N,N-dimethyl-6-(1,3-thiazol-2-ylamino)isonicotinamide] |  |  |  |  |  |  |
